# Assays:
# [1] = target: T1, E. coli YahA (Escherichia coli, UniProt P21514); assay: p-nitrophenol release, absorbance at […] nm; type: biochemical; conditions: 10 mM bis-pNPP, 50 mM HEPES pH 7.5, 2 mM MnCl2
# T1 sequence (P21514 73-362): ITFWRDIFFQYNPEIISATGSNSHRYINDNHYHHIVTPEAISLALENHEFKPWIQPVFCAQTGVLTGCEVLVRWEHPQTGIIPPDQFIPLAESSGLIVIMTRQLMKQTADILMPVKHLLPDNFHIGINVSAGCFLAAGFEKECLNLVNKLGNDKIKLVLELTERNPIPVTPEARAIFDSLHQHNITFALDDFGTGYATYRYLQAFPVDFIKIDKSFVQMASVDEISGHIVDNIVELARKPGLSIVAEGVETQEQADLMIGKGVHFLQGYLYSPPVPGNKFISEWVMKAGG
# [2] = target: T2, TBD1660 (Thiobacillus denitrificans, UniProt Q3SIB5); assay: p-nitrophenol release, absorbance at […] nm; type: biochemical; conditions: 10 mM bis-pNPP, 50 mM HEPES pH 7.5, 2 mM MnCl2
# T2 sequence (Q3SIB5 443-698): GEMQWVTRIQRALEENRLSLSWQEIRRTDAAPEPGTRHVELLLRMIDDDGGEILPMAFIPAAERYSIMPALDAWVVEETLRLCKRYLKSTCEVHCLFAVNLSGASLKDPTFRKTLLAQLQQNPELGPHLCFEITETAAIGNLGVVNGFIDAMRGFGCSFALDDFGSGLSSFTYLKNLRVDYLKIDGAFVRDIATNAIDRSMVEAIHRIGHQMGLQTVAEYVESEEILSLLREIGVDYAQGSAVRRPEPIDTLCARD
structure (smiles),measurement,setting,value
"O=[N+]([O-])c1ccc(OP(=O)(O)Oc2ccc([N+](=O)[O-])cc2)cc1 [bis-pNPP, bis-p-nitrophenyl phosphate]","p-nitrophenol release, absorbance at 410 nm",[1],E. coli YahA and T. denitrificans TBD1660 showing the highest activities
same,"p-nitrophenol release, absorbance at 410 nm",[2],E. coli YahA and T. denitrificans TBD1660 showing the highest activities
